Experimental data published in PubChem BioAssay AID328 (DTP/NCI, 2004).
Inconclusive results and toxic doses are left out.

System: BDF1 mice, P388 leukemia ip, median survival T/C
Test: NCI In Vivo Anticancer Drug Screen. Data for tumor model P388 Leukemia (intraperitoneal) in B6D2F1 (BDF1) mice
Conditions: endpoint: median survival time, higher = longer survival
Procedure, shortened: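 Each value expresses how treatment altered survival: treated-mouse outcome over vehicle-mouse outcome, both groups bearing the transplanted tumour.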

[1] = dose: 100.0 mg/kg/injection, schedule: Q04DX003 (ip), vehicle: saline with Tween-80
[2] = dose: 200.0 mg/kg/injection, schedule: Q04DX003 (ip), vehicle: saline with Tween-80
[3] = dose: 400.0 mg/kg/injection, schedule: Q04DX003 (ip), vehicle: saline with Tween-80
[4] = dose: 50.0 mg/kg/injection, schedule: Q04DX003 (ip), vehicle: saline
[5] = dose: 100.0 mg/kg/injection, schedule: Q04DX003 (ip), vehicle: saline
[6] = dose: 200.0 mg/kg/injection, schedule: Q04DX003 (ip), vehicle: saline

**Q.** How did the T/C (dose: 100.0 mg/kg/injection, schedule: Q04DX002 (ip), vehicle: saline with Tween-80) turn out when `CC(C)(C)S[Si](Cl)(SC(C)(C)C)SC(C)(C)C` was run?
**A.** The T/C was 119 % of control.

**Q.** What about the T/C (dose: 200.0 mg/kg/injection, schedule: Q04DX002 (ip), vehicle: saline with Tween-80) of the same molecule?
**A.** The T/C was 103 % of control.

**Q.** And the T/C (dose: 400.0 mg/kg/injection, schedule: Q04DX002 (ip), vehicle: saline with Tween-80)?
**A.** Its T/C is 94 % of control.

**Q.** How did the T/C (dose: 0.63 mg/kg/injection, schedule: Q01DX009 (ip), vehicle: Klucel (hydroxypropylcellulose) (HPC)) turn out when `O=C1C=CC(=O)c2c(Cl)ccc(O)c21` was run?
**A.** Its T/C is 116 % of control.

**Q.** What does the source list for `Nc1ccccc1-c1ccc([N+](=O)[O-])cc1`?
**A.** T/C (dose: 100.0 mg/kg/injection, schedule: Q01DX001 (ip), vehicle: saline with Tween-80): 95 % of control; T/C (dose: 200.0 mg/kg/injection, schedule: Q01DX001 (ip), vehicle: saline with Tween-80): 100 % of control; T/C (dose: 400.0 mg/kg/injection, schedule: Q01DX001 (ip), vehicle: saline with Tween-80): 91 % of control

**Q.** How did the T/C (dose: 10.0 mg/kg/injection, schedule: Q01DX009 (sc), vehicle: steriod suspending solution) turn out when `CCOC(=O)C1=C2c3ccc4ccccc4c3CCC2(C)C(=O)C1` (stereo not drawn) was run?
**A.** Its T/C is 104 % of control.

**Q.** What about the T/C (dose: 18.0 mg/kg/injection, schedule: Q04DX003 (sc), vehicle: steriod suspending solution) of the same molecule?
**A.** Its T/C is 91 % of control.

**Q.** What about the T/C (dose: 20.0 mg/kg/injection, schedule: Q01DX009 (sc), vehicle: steriod suspending solution) of the same molecule?
**A.** Its T/C is 95 % of control.

**Q.** What about the T/C (dose: 37.5 mg/kg/injection, schedule: Q04DX003 (sc), vehicle: steriod suspending solution) of the same molecule?
**A.** The T/C was 95 % of control.

**Q.** And the T/C (dose: 40.0 mg/kg/injection, schedule: Q01DX009 (sc), vehicle: steriod suspending solution)?
**A.** The T/C was 100 % of control.

**Q.** And the T/C (dose: 75.0 mg/kg/injection, schedule: Q04DX003 (sc), vehicle: steriod suspending solution)?
**A.** The T/C was 108 % of control.

**Q.** How did the T/C [1] turn out when `Cn1nc(NC(=O)C(F)(F)F)c2nccnc21` was run?
**A.** Its T/C is 100 % of control.

**Q.** And the T/C [2]?
**A.** Its T/C is 100 % of control.

**Q.** And the T/C [3]?
**A.** The T/C was 100 % of control.

**Q.** Which results are given for `N=C(N)c1ccc(-c2ccc(-c3ccc(C(=N)N)cc3)o2)cc1`?
**A.** T/C (dose: 3.13 mg/kg/injection, schedule: Q01DX009 (ip), vehicle: saline with Tween-80): 111 % of control; T/C (dose: 6.25 mg/kg/injection, schedule: Q01DX009 (ip), vehicle: saline with Tween-80): 119 % of control

**Q.** How did the T/C (dose: 100.0 mg/kg/injection, schedule: Q01DX009 (ip), vehicle: other) turn out when `CCCCCCCC(O)CCCCCCC` was run?
**A.** Its T/C is 115 % of control.

**Q.** What about the T/C (dose: 200.0 mg/kg/injection, schedule: Q01DX009 (ip), vehicle: other) of the same molecule?
**A.** Its T/C is 110 % of control.

**Q.** What about the T/C (dose: 400.0 mg/kg/injection, schedule: Q01DX009 (ip), vehicle: other) of the same molecule?
**A.** Its T/C is 100 % of control.

**Q.** For `N=C(N)SCc1c2ccccc2cc2ccccc12`, which T/C [2] is on record?
**A.** Its T/C is 163 % of control.

**Q.** What about the T/C (dose: 300.0 mg/kg/injection, schedule: Q04DX003 (ip), vehicle: saline with Tween-80) of the same molecule?
**A.** The T/C was 90 % of control.

**Q.** Which results are given for `Cc1ccc(/C=C/C(=O)c2ccc(Cl)cc2)cc1`?
**A.** T/C (dose: 100.0 mg/kg/injection, schedule: Q01DX009 (ip), vehicle: saline with Tween-80): 90 % of control; T/C [1]: 95 % of control; T/C (dose: 200.0 mg/kg/injection, schedule: Q01DX009 (ip), vehicle: saline with Tween-80): 90 % of control; T/C [2]: 109 % of control; T/C (dose: 400.0 mg/kg/injection, schedule: Q01DX009 (ip), vehicle: saline with Tween-80): 100 % of control; T/C [3]: 109 % of control

**Q.** Which T/C [1] does the source give for `N#Cc1ccc(Oc2ccc(C#N)cc2)cc1` here?
**A.** The T/C was 92 % of control.

**Q.** And the T/C [2]?
**A.** The T/C was 88 % of control.

**Q.** And the T/C [3]?
**A.** The T/C was 88 % of control.

**Q.** What does the source list for `O=c1cc(-c2ccccc2)nc2ccccn12`?
**A.** T/C (dose: 12.5 mg/kg/injection, schedule: Q01DX001 (ip), vehicle: saline with Tween-80): 109 % of control; T/C (dose: 25.0 mg/kg/injection, schedule: Q01DX001 (ip), vehicle: saline with Tween-80): 104 % of control; T/C (dose: 50.0 mg/kg/injection, schedule: Q01DX001 (ip), vehicle: saline with Tween-80): 123 % of control

**Q.** Which results are given for `CCOC(=O)c1cnc(C)[nH]c1=O`?
**A.** T/C (dose: 25.0 mg/kg/injection, schedule: Q01DX009 (ip), vehicle: saline): 113 % of control; T/C (dose: 50.0 mg/kg/injection, schedule: Q01DX009 (ip), vehicle: saline): 118 % of control; T/C [4]: 100 % of control; T/C (dose: 100.0 mg/kg/injection, schedule: Q01DX009 (ip), vehicle: saline): 100 % of control; T/C [5]: 104 % of control; T/C [6]: 86 % of control

**Q.** What does the source list for `CC(C)Cc1c(N)nc(=S)[nH]c1C(=O)O`?
**A.** T/C (dose: 50.0 mg/kg/injection, schedule: Q04DX003 (ip), vehicle: Klucel (hydroxypropylcellulose) (HPC)): 89 % of control; T/C (dose: 100.0 mg/kg/injection, schedule: Q04DX003 (ip), vehicle: Klucel (hydroxypropylcellulose) (HPC)): 107 % of control; T/C (dose: 200.0 mg/kg/injection, schedule: Q04DX003 (ip), vehicle: Klucel (hydroxypropylcellulose) (HPC)): 96 % of control

**Q.** Which results are given for `NS(=O)(=O)c1c([N+](=O)[O-])ncn1C1OC(COC(=O)c2ccccc2)C(OC(=O)c2ccccc2)C1OC(=O)c1ccccc1` (stereo not drawn)?
**A.** T/C (dose: 25.0 mg/kg/injection, schedule: Q04DX003 (ip), vehicle: saline): 105 % of control; T/C [4]: 100 % of control; T/C [5]: 121 % of control; T/C [6]: 124 % of control
